PubChem BioAssay (NCI)
“And” between values parts separate entries of the source, which are not always exact repeats. Equal values may be shown once.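 Briefly, cells in 96-well plates were exposed to five compound concentrations for 48 h, and endpoints were estimated by linear interpolation. GI50 marks 50% less growth. TGI is the concentration that stops growth completely.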

Tests used:
Test in all cases: growth of human tumour cells (NCI), 48 h
OVCAR-3 ovarian = test system: OVCAR-3 ovarian
MOLT-4 leukemia = test system: MOLT-4 leukemia
CCRF-CEM leukemia = test system: CCRF-CEM leukemia
SK-OV-3 ovarian = test system: SK-OV-3 ovarian
OVCAR-4 ovarian = test system: OVCAR-4 ovarian
SN12C renal = test system: SN12C renal
PC-3 prostate = test system: PC-3 prostate
SNB-75 CNS = test system: SNB-75 CNS
HL-60(TB) leukemia = test system: HL-60(TB) leukemia
NCI-H226 lung = test system: NCI-H226 lung

SMILES | GI50 (OVCAR-3 ovarian) [µM] | TGI (OVCAR-3 ovarian) | GI50 (MOLT-4 leukemia) | TGI (MOLT-4 leukemia) | GI50 (CCRF-CEM leukemia) | TGI (CCRF-CEM leukemia) | GI50 (SK-OV-3 ovarian) [µM] | TGI (SK-OV-3 ovarian) | GI50 (OVCAR-4 ovarian) [µM] | TGI (OVCAR-4 ovarian) | GI50 (SN12C renal) | TGI (SN12C renal) | GI50 (PC-3 prostate) [µM] | TGI (PC-3 prostate) | GI50 (SNB-75 CNS) | TGI (SNB-75 CNS) | GI50 (HL-60(TB) leukemia) | TGI (HL-60(TB) leukemia) | GI50 (NCI-H226 lung) | TGI (NCI-H226 lung)
COC(=O)[C@]12CC[C@@H](C)[C@H](C)[C@@H]1C1=CC[C@@H]3[C@@]4(C)C(C=O)=C[C@@](C)(COC(=O)c5ccco5)[C@@H]4C(=O)C[C@@]3(C)[C@]1(C)CC2 | 5.75 | > 100 µM | 2.08 µM | 7.8 µM | 2.42 µM | 12.6 µM | 43.1 | > 100 µM | 3.57 | > 100 µM | 8.69 µM | > 100 µM | 3.66 | > 100 µM | 4.24 µM | > 100 µM | 3.58 µM | 15.4 µM | 2.63 µM | 12.6 µM
C/C(=C\C1=C(Cl)C(=O)c2ccccc2C1=O)C(=O)O | 19.4 | 34.2 µM | 28.2 µM | > 100 µM | 21.8 µM | 46.2 µM | 19 | 33.1 µM | 19.9 | 36.3 µM | 24.5 µM | 55.1 µM | 17.3 | 31.1 µM | 21.5 µM | 35.9 µM | 25.4 µM | 63.5 µM | 19.6 µM | 37.5 µM
O=C([O][Hg][CH2]C1COC([CH2][Hg][O]C(=O)c2ccccc2)CO1)c1ccccc1 (centres undefined) | 7.93 | 21.9 µM | 2.18 µM and 1.41 µM | 6.5 µM and 6.83 µM | 0.958 µM and 1.17 µM | 3.64 µM | 17.6 | 31.4 µM | 11.3 | 25.2 µM | 12.2 µM and 1.54 µM | 24.6 µM and 3.02 µM | 15.3 | – | 17.6 µM and 4.32 µM | 31.9 µM and 23.4 µM | 1.68 µM and 1.82 µM | 4.54 µM and 21.6 µM | 20.2 µM and 6.31 µM | 39.1 µM and 34 µM
C[C@@H]1CC[C@@H]2[C@@H]1[C@H](OC(=O)/C=C/c1ccccc1)[C@]1(C3CCCCC3)C[C@@H](NC(=O)CO)[C@@]2(C)O1 | 17.3 | 34.2 µM | 18.5 µM | 39.3 µM | 23.2 µM | 45.2 µM | 17.9 | 32.1 µM | 16 | 35.4 µM | 11.4 µM | 24.2 µM | 14.9 | 28.9 µM | 12.6 µM | 26.9 µM | 21.5 µM | 40.4 µM | 16.7 µM | 32.4 µM
CN(C)c1ncnc2c1nnn2C1OC(CO)C(O)C1O (centres undefined) | 0.308 | 2.46 µM | 0.0635 µM | > 100 µM | 0.0662 µM | > 100 µM | 0.0413 | 22.5 µM | 0.0558 | > 100 µM | 0.479 µM | > 100 µM | 0.271 | > 45.5 µM | 0.106 µM | > 100 µM | 0.239 µM | > 100 µM | 4.49 µM | > 100 µM
CN(C)c1ccc(/C=C2\N=C(c3ccc([N+](=O)[O-])cc3)OC2=O)cc1 | – | > 100 µM | – | > 100 µM | – | 97.9 µM | – | > 100 µM | – | > 100 µM | – | > 100 µM | – | > 100 µM | – | > 100 µM | – | 87.9 µM | – | > 100 µM
O=C(CF)N(O)c1ccc(/C=C/c2ccccc2)cc1 | 3.28 | 19.7 µM | 2.72 µM | > 100 µM | 2.16 µM | > 100 µM | 7.53 | 32.1 µM | 5.49 | > 66.9 µM | 2.67 µM | > 63.5 µM | 5.6 | > 100 µM | 3.41 µM | 31.9 µM | 0.605 µM | 13.6 µM | 0.77 µM | 3.24 µM
O=C1c2ccccc2C(=Cc2ccccc2)c2ccccc21 | 2.56 | 9.11 µM | 4.74 µM | > 100 µM | 2.77 µM | 29 µM | 2.54 | 9.05 µM | 4.31 | 24.4 µM | 2.97 µM | 14.1 µM | 2.26 | 15.8 µM | 2.34 µM | 7.45 µM | 2.72 µM | 62.8 µM | 4.99 µM | 20.4 µM
O=C1C2=Nc3ccccc3C(O)N2c2ccccc21 (centres undefined) | – | 56.3 µM | – | > 100 µM | – | > 100 µM | – | > 100 µM | – | > 100 µM | – | > 100 µM | – | > 100 µM | – | 90.4 µM | – | 34.2 µM | – | 77.3 µM
C/C1=C/C2=CC(C)C[C@@H]2C(=O)[C@]2(C)C(=O)CC(C)(C)[C@H]2CC1=O (some centres undefined) | – | > 50 µM | – | > 50 µM | – | > 50 µM | – | > 50 µM | – | > 50 µM | – | > 50 µM | – | > 50 µM | – | > 50 µM | – | > 50 µM | – | > 50 µM
CC(C)(C)c1[nH]cnc1/C=c1\[nH]c(=O)/c(=C/c2ccccc2)[nH]c1=O | < 0.01 | 19.2 µM | 0.0215 µM | 19.7 µM | < 0.01 µM | > 68.4 µM | < 0.01 | 60.9 µM | 0.151 | 55.3 µM | < 0.0144 µM | 69.6 µM | < 0.01 | 36.1 µM | < 0.01 µM | 44 µM | < 0.01 µM | 11.1 µM | 0.0275 µM | 3.69 µM
CC(=O)OCC(=O)O[C@@H]1C[C@]2(C(C)C)O[C@@]1(C)[C@@H]1CC[C@@H](C)[C@H]1[C@@H]2OC(=O)/C=C/c1ccccc1 | 32.8 | > 100 µM | 20.3 µM | > 100 µM | 21.3 µM | > 100 µM | 24.5 | > 97.2 µM | 22.7 | > 100 µM | 1.88 µM | 24.3 µM | 7.88 | > 100 µM | 13.2 µM | 58.4 µM | 15 µM | 62 µM | 10.6 µM | 37.1 µM
CC/C=C\C/C=C\C[C@H](O)C/C=C1/C(=O)C=C[C@@H]1C/C=C\CCCC(=O)O | 3.23 | 12.7 µM | 2.83 µM | 11.8 µM | 2.17 µM | 14 µM | 16 | 34.7 µM | 4.15 | 20 µM | 3.6 µM | 43.1 µM | 6.03 | 21.5 µM | 10.4 µM | 28.6 µM | 2.93 µM | 10.1 µM | 2.57 µM | 5.86 µM
O=C(CN1CCN(c2ccc(Cl)cc2)CC1)N1CCN(c2nnc(-c3ccc(Cl)cc3)c(-c3ccc(Cl)cc3)n2)CC1 | 48.3 | > 100 µM | 5.92 µM | > 100 µM | 16.5 µM | 73.9 µM | 33.9 | > 100 µM | > 100 | > 100 µM | 37 µM | > 100 µM | 57.5 | > 100 µM | 15.1 µM | 35.5 µM | > 100 µM | > 100 µM | 45.7 µM | > 100 µM
COC(=O)c1ccc(NC(=O)Nc2ccc3oc(=O)c4ccccc4c3c2)cc1 | 29.5 | 54.6 µM | 17.6 µM | 62.1 µM | 0.177 µM | 21.7 µM | 40.3 | > 100 µM | 33.5 | > 100 µM | 44.5 µM | > 100 µM | 36.2 | > 100 µM | 32 µM | 96.2 µM | 0.714 µM | 14 µM | 64.1 µM | > 100 µM
O=c1cc(N2CCNCC2)oc2c(-c3ccccc3)cccc12 | 24.6 | > 100 µM | 19.4 µM | 56.8 µM | 25.5 µM | 69.5 µM | 13.8 | 42.2 µM | 52.7 | > 100 µM | 45.1 µM | > 100 µM | 32 | > 100 µM | 15.3 µM | 75 µM | 29.4 µM | > 100 µM | > 100 µM | > 100 µM
Cn1cc(C2=C(c3cccnc3)C(=O)NC2=O)c2ccccc21 | 15 | > 25 µM | > 21.6 µM | > 25 µM | 10.5 µM | > 25 µM | > 22.9 | > 25 µM | > 22.2 | > 25 µM | > 25 µM | > 25 µM | 17.1 | > 25 µM | 0.882 µM | > 25 µM | > 25 µM | > 25 µM | 8.15 µM | > 19.2 µM
COc1ccc2c(c1)C(=O)C(=O)c1cc(O)c(OC)c(OC)c1-2 | 1.65 | 3.63 µM and 3.11 µM | 2.38 µM | 0.746 µM and 5.74 µM | 0.451 µM | 2.65 µM and 2.92 µM | 1.79 | 7.27 µM and 3.17 µM | 1.56 | 1.59 µM and 2.9 µM | 1.71 µM | 1.6 µM and 3.08 µM | 1.93 | 2.48 µM and 3.34 µM | 1.69 µM | 2.85 µM and 3.06 µM | – | 0.681 µM | 1.95 µM | 14.3 µM and 3.9 µM
O=C(O)CCC(=O)c1ccc2ccc3cccc4ccc1c2c34 | – | > 100 µM | – | > 100 µM | – | > 100 µM | – | > 100 µM | – | > 100 µM | – | > 100 µM | – | > 100 µM | – | > 100 µM | – | > 100 µM | – | > 100 µM
O=P(NC12CC3CC(CC(C3)C1)C2)(N1CC1)N1CC1 | – | > 100 µM | – | > 43.2 µM | – | > 100 µM | – | > 100 µM | – | > 100 µM | – | > 100 µM | – | > 100 µM | – | > 100 µM | – | 98.9 µM | – | > 94.8 µM
O=c1c2ccccc2n2n1CC(O)C2 (centres undefined) | – | > 100 µM | – | > 100 µM | – | > 100 µM | – | > 100 µM | – | > 100 µM | – | > 100 µM | > 100 | > 100 µM | – | > 100 µM | – | > 100 µM | – | > 100 µM
